Data from US20150031102A1, “METHODS AND COMPOSITIONS FOR ENHANCED PRODUCTION OF BUTANOL BY CLOSTRIDIA” (Butrolix LLC, priority 2012, published 2015).

Tested on: Clostridium acetobutylicum strain ATCC 824
Assay: Sequential batch transfer in 24-well culture plates (butanol, residual glucose, butanol yield and productivity)
Format: cell-based
Details: after 96 hours of culture; for Butanol: Experiment 1; for Residual glucose concentration: initial glucose 60 g/L
Description: Each well contained 1.5 mL of growth medium. Peptide was added to each well at the indicated concentration (0, 25, 50, and 100 nM). Every 24 hours fresh medium and peptide treatment were added to a new column of wells then 1.5 μL of the previous day culture was transferred to the new well. Wells were harvested for glucose and butanol analysis after 96 hours of growth. Transfers 1, 4, 7, 10, 13, 16, […].
Briefly, Clostridium spores were germinated in a suitable growth medium for 18-24 hours then […] was transferred to 1.5 mL of fresh medium in each of four wells on a 24-well culture plate. Three of the wells had been treated with 25 nM, 50 nM and 100 nM of peptide, respectively while the fourth well was untreated. Thereafter, every 24 hours […] of each subculture was transferred to 1.5 mL of fresh medium that contained the same peptide treatment or no treatment. Transfers of successive subcultures were done for 24 days, and each subculture was grown for 96 hours before being harvested. Culture supernatants were recovered following centrifugation and were analyzed for butanol and residual glucose concentrations. Determination of optimum peptide treatment levels was based on a graphical comparison of the concentration of butanol in each of the four culture wells for sequential transfers 1, 4, 7, 10, 13, 16, 19, 22 and 24.
Clostridium acetobutylicum strain ATCC 824 was used in all experiments and the growth medium used for sequential batch transfer, time course, and continuous culture experiments contained yeast extract, casamino acids, L-cysteine, L-asparagine, phosphate buffer, trace minerals, and 6% glucose. What are believed to be quorum-sensing peptides that were used in the experiments were chemically synthesized peptides SEQ ID NO: 143 (amino acid sequence: SYPGWSW) and SEQ ID NO: 144 (amino acid sequence: ILILISG). Routine growth of the bacteria as well as the sequential batch and time course experiments were conducted in a Form a Scientific Model 1029 anaerobic gas chamber at 32° C. Continuous cultures were performed at 32° C. using duplicate New Brunswick Scientific BioFlo 3000 apparati with a dilution rate of 0.01 volume per hour, 75 rpm agitation, and nitrogen gas sparging. Optical density of culture samples was measured at 600 nm in a Beckman DU 600 series spectrophotometer and glucose was analyzed using a YSI Model 2700 Select Biochemistry Analyzer with internal glucose calibration. Butanol concentrations were determined by measuring experimental and standard samples using a Varian Saturn 3 Gas Chromatograph/Mass Spectrometer and calculating butanol concentrations using standard curves.
(§1) Sequential batch transfer experiments were carried out in 24-well culture plates that contained 1.5 mL of medium per well. Peptide was added to each well at the indicated concentrations of 0 nM (control), 25 nM, 50 nM, or 100 nM. Every 24 hours, fresh medium and peptide treatments were added to a new column of wells. Then, 1.5 uL of the previous day culture was transferred to the new well. Wells were harvested for glucose and butanol analysis after 96 hours of growth; transfers 1, 4, 7, 10, 13, 16, 19, 22, and 24 were analyzed. Two representative experiments are shown in Tables 30 and 31 and FIGS. 14 and 15.
as §1, with “32” for “30”, “33” for “31”, “16” for “14”, “17.” for “15.”

[1] = 25 nM, transfer 19, first experiment
[2] = 25 nM, transfer 22, first experiment
[3] = 25 nM, transfer 24, first experiment
[4] = 50 nM peptide, transfer 1, Expt. 2 (repeat)
[5] = 50 nM peptide, transfer 4, Expt. 2 (repeat)
[6] = 50 nM peptide, transfer 7, Expt. 2 (repeat)
[7] = 50 nM peptide, transfer 10, Expt. 2 (repeat)
[8] = 50 nM peptide, transfer 13, Expt. 2 (repeat)
[9] = 50 nM peptide, transfer 16, Expt. 2 (repeat)
[10] = 50 nM peptide, transfer 19, Expt. 2 (repeat)
[11] = 50 nM peptide, transfer 22, Expt. 2 (repeat)
[12] = 50 nM peptide, transfer 24, Expt. 2 (repeat)
[13] = 50 nM, transfer 1, first experiment
[14] = 50 nM, transfer 4, first experiment
[15] = 50 nM, transfer 7, first experiment

## SYPGWSW [peptide SEQ ID NO: 143]
25 nM, transfer 19
  Butanol: 4.37 g/L
[1]
  Butanol productivity: 0.05 g butanol/L-h
  Butanol yield: 0.07 g butanol/g/glucose
  Residual glucose concentration: 48.1 g/L
25 nM, transfer 22
  Butanol: 7.12 g/L
[2]
  Butanol productivity: 0.07 g butanol/L-h
  Butanol yield: 0.12 g butanol/g/glucose
  Residual glucose concentration: 45.7 g/L
25 nM, transfer 24
  Butanol: 5.06 g/L
[3]
  Butanol productivity: 0.05 g butanol/L-h
  Butanol yield: 0.08 g butanol/g/glucose
  Residual glucose concentration: 48.5 g/L
[4]
  Butanol concentration: 0.72 g/L
  Butanol productivity: 0.01 g butanol/L-h
  Butanol yield: 0.01 g butanol/g/glucose
  Residual glucose concentration: 48.9 g/L
[5]
  Butanol concentration: 1.41 g/L
  Butanol productivity: 0.01 g butanol/L-h
  Butanol yield: 0.02 g butanol/g/glucose
  Residual glucose concentration: 43.2 g/L
[6]
  Butanol concentration: 3.09 g/L
  Butanol productivity: 0.03 g butanol/L-h
  Butanol yield: 0.05 g butanol/g/glucose
  Residual glucose concentration: 41.3 g/L
[7]
  Butanol concentration: 7.69 g/L
  Butanol productivity: 0.08 g butanol/L-h
  Butanol yield: 0.13 g butanol/g/glucose
  Residual glucose concentration: 0.5 g/L
[8]
  Butanol concentration: 8.72 g/L
  Butanol productivity: 0.09 g butanol/L-h
  Butanol yield: 0.15 g butanol/g/glucose
  Residual glucose concentration: 0.1 g/L
[9]
  Butanol concentration: 10.70 g/L
  Butanol productivity: 0.11 g butanol/L-h
  Butanol yield: 0.18 g butanol/g/glucose
  Residual glucose concentration: 0.1 g/L
[10]
  Butanol concentration: 5.75 g/L
  Butanol productivity: 0.06 g butanol/L-h
  Butanol yield: 0.10 g butanol/g/glucose
  Residual glucose concentration: 0.1 g/L
[11]
  Butanol concentration: 4.54 g/L
  Butanol productivity: 0.05 g butanol/L-h
  Butanol yield: 0.08 g butanol/g/glucose
  Residual glucose concentration: 0.1 g/L
[12]
  Butanol concentration: 4.78 g/L
  Butanol productivity: 0.05 g butanol/L-h
  Butanol yield: 0.08 g butanol/g/glucose
  Residual glucose concentration: 0.1 g/L
50 nM, transfer 1
  Butanol: 1.12 g/L
[13]
  Butanol productivity: 0.01 g butanol/L-h
  Butanol yield: 0.02 g butanol/g/glucose
  Residual glucose concentration: 45.5 g/L
50 nM, transfer 4
  Butanol: 11.53 g/L
[14]
  Butanol productivity: 0.12 g butanol/L-h
  Butanol yield: 0.19 g butanol/g/glucose
  Residual glucose concentration: 0.1 g/L
50 nM, transfer 7
  Butanol: 9.36 g/L
[15]
  Butanol productivity: 0.10 g butanol/L-h
  Butanol yield: 0.16 g butanol/g/glucose
  Residual glucose concentration: 0.1 g/L
50 nM, transfer 10
  Butanol: 13.66 g/L
